# From patent US20030229113A1, “Keratinocyte growth inhibitors and hydroxamic acid derivatives” (priority 2003, published 2003)
# Read-outs that look alike come from different tables or passages of the source.
# What was measured:
# [1] = test system: epidermal hyperplasia induced by TPA; test: TPA-induced epidermal hyperplasia on dorsal skin of mice; format: in vivo, male BALB/c mice; settings: ED50; topical in acetone at 1 minute, 24 and 48 hours after TPA; epidermal thickness 72 hours after TPA
# Method: After backs of male BALB/c mice were shaved, 20 micro 1 of TPA-acetone solution (50 μM) was applied to the dorsal skin surface in an area of ca. 1 cm^2. A volume of 20 micro 1 of test compound-acetone solution was applied to the same area a minute, 24 hours and 48 hours after TPA application (the treated group). In the non-treated group, acetone was applied instead of the test compound. In the control group, acetone was applied instead of TPA and the test compound. The mice were sacrificed, and the skin tissues treated with TPA or the test compound were excised 72 hours after TPA application. Then the tissues were fixed with 10% formalin and embedded in paraffin according to the conventional method. The vertical sections including the center of the TPA- or the test compound-treated area were prepared and they were stained by hematoxylin-eosin. The epidermal thickness was measured using an ocular microscope. The amount of the test compound required for achieving 50% inhibition against the mean epidermal thickness of the non-treated group (ED50) was calculated, wherein the mean epidermal thickness of the non-treated group was 100% and that of the control group was 0%.
# [2] = test system: solubilizing enzyme of HB-EGF; test: Inhibition of TPA-stimulated release of HB-EGF from HT-1080 transfectant expressing HB-EGF/alkaline phosphatase fusion protein; format: cell-based, human; settings: HT-1080 HB-EGF-AP transfectant, TPA 60 nM for 60 min, AP activity in conditioned medium (OD405)
# Method: Human fibrosarcoma HT-1080 stable transfectant expressing fusion protein of HB-EGF and human placental alkaline phosphatase (AP) were used for following experiments.
# The cultured transfectant was treated with Trypsin-EDTA solution, and suspended in Minimum Essential Medium (without phenol red; supplemented with 10% heat-inactivated fetal calf serum; MEM) at the concentration of 1×10^5 cells/ml. Each 0.2 ml of the cell suspension was dispensed into individual wells of 96 well microplate, and incubated overnight in the CO2 incubator (37° C.). After the incubation, the conditioned medium was removed, and the wells were washed once with 0.2 ml of phosphate buffered saline. The cells were treated with 0.1 ml of compound solution [compound solutions in dimethylsulfoxide (DMSO) were diluted 100 times with MEM] for 30 min at 37° C. Then the compound solutions were removed, and cells were treated with 0.2 ml of TPA solution (120 μM) of stock solution was diluted to 60 nM with MEM) containing same concentration of the compound for 60 min at 37° C. The cells treated same procedure without compound were used as control.
# After these treatments, each 0.1 ml of conditioned medium was transferred to individual wells of new 96 well microplate and incubated at 65° C. for 10 min to inactivate endogenous alkaline phosphatase. One hundred microliter of substrate solution (1 mg/ml of p-nitrophenyl phosphate in 0.01% magnesium chloride/1 M diethanolamine) for AP was added to each well and incubated for 120 min at room temperature in the dark. The OD405 of each well was measured with microplate reader. The IC50 values of the compounds were calculated from the concentration-inhibition curves.
# [3] = test system: re-epithelialization of skin wound; test: Re-epithelialization in mouse skin wound model; format: in vivo, male BALB/c mice; settings: 50% inhibition of re-epithelialization; applied to 6-mm wound once a day
# Method: Wound healing model was prepared according to the method described by Tsuboi, et al. [J. Dermatol., 19, 673-675 (1992)]. Briefly, after backs of male BALB/c mice were shaved, two full-thickness round wounds were prepared in parallel to anterior-posterior axis on the back of each mouse using a punch biopsy instrument (6-mm diameter). After the operation, a test compound dissolved or suspended in 0.1M phosphate-buffered saline containing 1.5% sodium carboxymethylcellulose (vehicle) was applied to each wound in a volume of 50 μl/wound. The wounds were left open. From the following day, the compound was applied to each wound once a day for 7 days (the treated group). In the control group, vehicle solution only was applied in the same manner. One day after the last application, mice were sacrificed and skin tissues around the anterior wound were excised. The tissues were fixed with 10% formalin and embedded in paraffin according to the conventional method. The sections were made perpendicularly to the anterior-posterior axis. Keratinocytes in the specimen were stained with an anti-keratin antibody. Measurements of wound size and epidermal migration were performed by using an image-analyzing software. Re-epithelialization was calculated as follows; [formula]
# The amount of the test compound required for achieving 50% inhibition against the mean re-epithelialization of the control group (ED50) was calculated.
SMILES,IC50 ([2]; read-out: IC50),Amount of test compound required for 50% suppression of epidermal hyperplasia [1],ED50 [3],IC50 [2]
"COCCCOc1ccc(S(=O)(=O)N2Cc3nccnc3CC2C(=O)NO)cc1 (single isomer, unassigned; (+)) [the compound(14), (+)-N-Hydroxy-6-[4-(3-methoxypropoxy)benzenesulfonyl]-5,6,7,8-tetrahydropyrido[3,4-b]pyrazine-7-carboxamide]",0.053 µM,300 10^−6 g/cm^2,9.8 10^−6 g/0.3 cm^2,–
"COCCOc1ccc(S(=O)(=O)N2Cc3nccnc3CC2C(=O)NO)cc1 (single isomer, unassigned; (+)) [the compound(19), (+)-N-Hydroxy-6-[4-(2-methoxyethoxy)benzenesulfonyl]-5,6,7,8-tetrahydropyrido[3,4-b]pyrazine-7-carboxamide]",0.36 µM,200 10^−6 g/cm^2,16.6 10^−6 g/0.3 cm^2,–
"O=C(NO)C1Cc2nccnc2CN1S(=O)(=O)c1ccc(Oc2ccccc2)cc1 (single isomer, unassigned; (+)) [the compound(20), (+)-N-Hydroxy-6-(4-phenoxybenzenesulfonyl)-5,6,7,8-tetrahydropyrido[3,4-b]pyrazine-7-carboxamide]",0.41 µM,27 10^−6 g/cm^2,9.7 10^−6 g/0.3 cm^2,–
"CSCCCOc1ccc(S(=O)(=O)N2Cc3nccnc3CC2C(=O)NO)cc1 (single isomer, unassigned; (+)) [the compound(21), (+)-N-Hydroxy-6-[4-(3-methylthiopropoxy)benzenesulfonyl]-5,6,7,8-tetrahydropyrido[3,4-b]pyrazine-7-carboxamide]",–,230 10^−6 g/cm^2,11.0 10^−6 g/0.3 cm^2,0.1 µM
"CNC(=O)C(Cc1cccc2ccccc12)NC(=O)C(CC(=O)NO)CC(C)C [the compound d, [4-(N-hydroxyamino)-2 (R)-isobutylsuccinyl]-L-3-(1-naphtyl)-alanine-N-methylamide, reference compound]",1.7 µM,40 10^−6 g/cm^2,–,–

# More lines, main results first:
IC50 ([2]; read-out: IC50),SMILES,Amount of test compound required for 50% suppression of epidermal hyperplasia [1],ED50 [3],IC50 [2]
0.35 µM,"COc1ccc(S(=O)(=O)N2Cc3nccnc3CC2C(=O)NO)cc1 (single isomer, unassigned; (+)) [the compound(13), (+)-N-Hydroxy-6-(4-methoxybenzenesulfonyl)-5,6,7,8-tetrahydropyrido[3,4-b]pyrazine-7-carboxamide]",350 10^−6 g/cm^2,4.5 10^−6 g/0.3 cm^2,–
0.31 µM,"CCOc1ccc(S(=O)(=O)N2Cc3nccnc3CC2C(=O)NO)cc1 (single isomer, unassigned; (+)) [the compound(15), (+)-N-Hydroxy-6-(4-ethoxybenzenesulfonyl)-5,6,7,8-tetrahydropyrido[3,4-b]pyrazine-7-carboxamide]",370 10^−6 g/cm^2,5.2 10^−6 g/0.3 cm^2,–
1 µM,"CCCOc1ccc(S(=O)(=O)N2Cc3nccnc3CC2C(=O)NO)cc1 (single isomer, unassigned; (+)) [the compound(16), (+)-N-Hydroxy-6-(4-propoxybenzenesulfonyl)-5,6,7,8-tetrahydropyrido[3,4-b]pyrazine-7-carboxamide]",–,11.6 10^−6 g/0.3 cm^2,–
